For data set [1] the following is noted: cited from earlier work.
Data set [2] can be described thus: Antipyrine clearance by Child-Pugh and DSI. Format: in vivo, human. The text has this:
Antipyrine is an analgesic and antipyretic. […] Antipyrine may be used in testing the effects of other drugs or diseases on drug-metabolizing enzymes in the liver, such as various cytochrome p450 (CYP) enzymes, for example, as shown in Table 22.

On the set-up of data set [3]: species or system human. The conditions noted are these: in vivo. The procedure:
In some embodiments, the distinguishable compound is galactose. Galactose elimination capacity (GEC) has been used as an index of residual hepatic function. Galactose in the GEC test typically is administered intravenously at a dose of […] and venous samples taken every 5 min between 20 and 60 minutes. The clearance of galactose is decreased in individuals with chronic liver disease and cirrhosis. The fact that this carbohydrate has a high extraction ratio, however, makes the metabolism of galactose dependent on liver blood flow and hepatic functional mass. […] The carbohydrate galactose is metabolized almost exclusively in the liver, and the elimination rate at blood concentrations high enough to yield near-saturated enzymatic conversion, the GEC is used as a quantitative measure of the metabolic capacity of the liver. One study has shown that among patients with a newly-diagnosed cirrhosis and a decreased GEC, the GEC was a strong predictor of mortality. (Jepsen et al, 2009, The galactose elimination capacity and mortality in 781 Danish patients with newly-diagnosed liver cirrhosis: a cohort study. BMC Gastroenterol. 2009, 9:50).

For data set [4] the following is noted: individuals with chronic liver disease and cirrhosis; cited from earlier work.
A short description of data set [5]: Lidocaine MEGX 15 min concentration by Child-Pugh and DSI. It is filed as in vivo, human. The conditions noted are these: by DSI score group (5-15, 15-25, 25-35, 35-45). Here is the method: Lidocaine elimination and MEGX (monoethylglycinexylidide) formation after oral lidocaine administration may be used as a quantitative assessment of liver function. […] MEGX 15 minute concentrations.

For data set [6] the following is noted: in vivo. The text has this:
The present inventors analyzed the relationship of DSI to pharmacokinetic parameters of various classes of drugs.
Methionine is an essential amino acid in humans, and is the substrate for other amino acids such as cysteine or taurine. Methionine also may be used to prevent liver toxicity in acetaminophen (Tylenol) poisoning, to increase acidity of urine, treat liver disorders, or improve wound healing. […] The methionine breath test may involve orally administered ^13C-methionine to detect hepatic mitochondrial dysfunction by evaluating level of ^13CO2 exhalation. ^13C methionine breath test may be used to monitor hepatic mitochondrial oxidation and drug-related mitochondrial toxicity in vivo, for example, to detect antiretroviral drug-related mitochondrial toxicity.

Data set [7] is described as follows: Obeticholic acid plasma exposure versus DSI, clinical trial in NASH. Format: in vivo, human. The settings on record: NASH patients, fibrosis F1 to compensated F4. The text has this:
Obeticholic acid (OCA) is a Farnesoid X Receptor (FXR) agonist, bile acid analog of chenodeoxycholic acid that is FDA approved for treatment of primary biliary cholangitis, and is being studied for use in treating other hepatic diseases and conditions. […] The circles are observed data; red lines are linear regression fit. OCA=Obeticholic acid. […] DSI correlates with OCA PK both at baseline (day 1) and at day 85.

The values that follow come from patent US20210318274A1, “METHODS FOR EVALUATING LIVER FUNCTION” (HepQuant, LLC, priority 2020, published 2021).

Like-named read-outs stand apart in the source and are kept apart here.

Turning to `Cc1cc(=O)n(-c2ccccc2)n1C` [Antipyrine], in data set [1] (in vivo), the “First pass hepatic extraction (qualitative)” value (“First pass hepatic extraction” below) is recorded as “low first pass hepatic metabolism”. The Average antipyrine clearance entry in data set [2] (Child-Pugh class B versus CP A5 and CP A6 patients) is reported as “decreased average antipyrine clearance”; in data set [2] (by DSI score group (5-15, 15-25, 25-35, 35-45)), “reduced average antipyrine clearance”; in data set [2] (by DSI score group (5-15, 15-25, 25-35, 35-45), listed as antipyrine), “lowest PK average values”.
With `O=C[C@H](O)[C@@H](O)[C@@H](O)[C@H](O)CO` [Galactose], in data set [1] (substrate characterisation), the “First pass hepatic extraction” value is “relatively high first pass hepatic extraction”. Also, the “Average galactose elimination capacity” value in data set [3] is recorded as “decreased average galactose elimination capacity”. In data set [4], the Clearance of galactose entry is listed as “decreased”.
As for `CCN(CC)CC(=O)Nc1c(C)cccc1C` [Lidocaine], the “First pass hepatic extraction” value in data set [1] (substrate characterisation) was “relatively high first pass hepatic extraction”. Moreover, the “Average MEGX 15 min concentration following lidocaine” value in data set [5] was “lowest PK average values”.
Take `CSCC[C@H](N)C(=O)O` [Methionine]: in data set [1] (substrate characterisation), the “First pass hepatic extraction” value is reported as “relatively low first pass hepatic extraction”. For the same compound, the “Average ^13CO2 exhalation score (methionine breath test)” value in data set [6] (human) is “reduced average ^13CO2 exhalation score”. In data set [6], the “Average ^13CO2 exhalation score (methionine breath test)” value is on record as “lowest PK average values” and the “Average methionine breath test value” was “decreased average methionine breath test values”.
As for `CC[C@H]1[C@@H](O)[C@@H]2[C@H](CC[C@]3(C)[C@@H]([C@H](C)CCC(=O)O)CC[C@@H]23)[C@@]2(C)CC[C@@H](O)C[C@@H]12` [Obeticholic acid, 6alpha-ethyl-chenodeoxycholic acid], in data set [7], the “Plasma exposure in relation to DSI” value was “related to DSI measurement”.
